Measured values from patent publication US20260234164A1, “BIPHENYL COMPOUND AS IMMUNOMODULATOR, PREPARATION METHOD THEREFOR AND USE THEREOF” (SHENZHEN CHIPSCREEN BIOSCIENCES CO., LTD., priority 2021, published 2026).

Key:
[1] = Pharmacokinetic assay after repeated oral administration; type: in vivo, B-hPD-1/hPD-L1 mice; settings: female, B-hPD-1/hPD-L1, mouse; plasma, 50 mg/kg oral once a day, after administration on the 18th day
Procedure: Twenty-four female B-hPD-1/hPD-L1 mice aged 6-8 weeks were purchased from Biocytogen Jiangsu Gene Biotechnology Co., Ltd. The mice were randomly divided into 4 groups, 6 mice in each group. The test compounds were prepared in a vehicle containing 5% DMSO, 60% PEG400 and 35% purified water, including I-1 and 3 control molecules Example 17, Compound 14 (INCB086550), and Example 180. The compounds were administered orally at 50 mg/kg, once a day. The blood was collected alternately through the fundus venous plexus after the administration on the 18th day. The blood collection time points were 15 min, 30 min, 1 h, 2 h, 4 h, 8h, 24 h and 32h. About 0.1 mL of blood was collected in a centrifuge tube (anticoagulated with sodium heparin), and centrifuged at 5000 rpm for 5 min. Then the plasma was separated, and frozen at −20° C. for later detection. After the plasma samples were processed, the concentration of the compounds in the plasma was determined by liquid chromatography-mass spectrometry (LC-MS/MS). The pharmacokinetic parameters were calculated using Phoenix WinNonlin 7.0.

[2] = Tumor tissue distribution assay in MC38-PD-L1 tumor-bearing mice; type: in vivo, B-hPD-1/hPD-L1 humanized mice; settings: 50 mg/kg oral once/day; for concentration at 4 h / concentration at 24 h: female, B-hPD-1/hPD-L1 humanized, mouse, tumor tissue
Excerpt: 16 B-hPD-1/hPD-L1 humanized female mice, aged 6-8 weeks were purchased from Biocytogen Jiangsu Gene Biotechnology Co., Ltd. After 1 week of adaptation, the mice were subcutaneously inoculated with MC38-PD-L1 cells at 2×10^6 cells/site. After the tumor grew to about […], the mice were divided into 4 groups, 4 mice in each group. The test compounds were formulated in a vehicle containing 5% DMSO, 60% PEG400 and 35% purified water, including I-1 and 3 control molecules Example 17, Compound 14 (INCB086550), and Example 180. The compounds were orally administered at 50 mg/kg, once/day. The blood and tumor tissue were collected 4 h and 24 h after administration on the 18th day. A certain amount of tissue was weighed, and added with phosphate-buffered saline (PBS) solution for homogenization. After the sample was processed, it was analyzed by LC-MS/MS to determine the concentration of the compound in plasma and tissue.

[3] = system: PD-1/PD-L1-mediated T cell activation inhibitory signal; experiment: CHO-PD-L1-CD3L / Jurkat-PD-1-NFAT co-culture luciferase reporter assay; type: cell-based; settings: Homo sapiens, co-culture 6 h, read-out: EC50 blocking PD-1/PD-L1-mediated T cell activation inhibitory signal
Procedure: In order to detect the effect of the interaction between PD-1 and PD-L1 on T cell activation signals in the immune response, CHO-PD-L1-CD3L cells stably expressing human PD-L1 molecules and anti-CD3 single-chain antibody (ScFv) and Jurkat-PD-1-NFAT cells stably expressing human PD-1 molecule and NFAT reporter gene were constructed. When the two kinds of cells were co-incubated, the binding of anti-CD3ScFv on the surface of CHO cells and the membrane CD3 molecules of Jurkat cells would transmit an activation signal to Jurkat cells, but simultaneously, the binding of PD-L1 on the surface of CHO cells and PD-1 molecules on the surface of Jurkat cells would transmit an inhibitory signal inward to prevent expression of the luciferase reporter gene. When immune checkpoint antibodies or small molecule inhibitors were added, the binding of PD-1 and PD-L1 was blocked, the NFAT pathway activated by T cell activation signal mediated by cross-linking of CD3ScFv antibody and CD3 was no longer affected by the inhibitory signal, and the downstream luciferase reporter gene started to be expressed. A chemiluminescent signal proportional to reporter gene activation was detected by adding a catalytic substrate.
CHO-PD-L1-CD3L cells expressing human PD-L1 molecule and anti-CD3 single-chain antibody (ScFv) and Jurkat-PD-1-NFAT cells stably expressing human PD-1 molecule and NFAT reporter gene were independently constructed and provided by Dr. Chen Bo (KeyMed Bioscience (Chengdu) Co., Ltd.). Puromycin (Cat #540411) and Hygromycin B (Cat #V900372) for stable culture of transfected cells were purchased from Sigma, PMA (Cat #P1585) was purchased from Sigma, anti-human PD-L1 antibody (Cat #GMP-A066) was purchased from Novoprotein Company. Luciferase substrate solution (Cat #E6485) and luciferase-specific cell lysis solution 5× (Cat #E1531) were purchased from Promega. Fluorescence detection instrument Tecan (Spark 10M) was purchased from Switzerland Tecan Company.
(1) The day before the experiment, 100 μL of CHO-PD-L1-CD3L cells were inoculated in each well of a 96-well cell culture plate (about 4×10^4 cells/well) with a medium of DMEM/F12 containing 10% FBS, 8 μg/mL puromycin and 200 μg/mL hygromycin B, and cultured overnight at 37° C.
(2) The test compounds were diluted with 0.1% PBST into different concentration gradients, added into 96-well plates, and pre-incubated for 30 min. Jurkat-PD-1-NFAT cell count was adjusted to 2×10^5 cells/mL with the RPMI 1640 complete medium containing 10% FBS, […]8 μg/mL puromycin and 200 μg/mL hygromycin B. 100 ng/mL PMA (the stock solution was prepared with DMSO to a concentration of 10 mg/mL) was added to amplify T cell activation signal. 100 μL of the above Jurkat-PD-1-NFAT cells was added to each well of the 96-well plate for co-culture.
(3) When detecting the reaction, a control group was provided, including a solvent control without adding test compounds and a positive control with addition of anti-human PD-1 antibody as the experimental system. All detections were performed with duplicates.
(4) After continuous incubation at 37° C. for 6 h, 40 μL of 5× cell lysate was directly added, and mixed well. The plate was placed at room temperature for 10 min to completely lyse the cells. 50 μL of the lysed cell solution was transferred to a fluorescence detection plate, and added with 30 μL of luciferase substrate solution. The chemiluminescence detection program on the fluorescence detector was immediately selected for detection.
(5) The inhibition rate of T cell activation signal at the cellular level of the test compounds was calculated as follows: Inhibition rate of T cell activation signal (%)=(the original value of chemiluminescence in the detection well−solvent control)/(the highest original value of chemiluminescence detected in the compound detection well−solvent control)×100%. […]

[4] = clinical studies; cited from earlier work
[5] = 4 h after administration on the 18th day
[6] = 24 h after administration on the 18th day

AUC(0-t) [1] | MRT [1] | half-life [1] | Ratio of I-1 to control molecule (tumor tissue concentration) [2, 5] | Ratio of I-1 to control molecule (tumor tissue concentration) [2, 6] | concentration at 4 h [2, 5] | concentration at 24 h [2, 6] | EC50 [3] | Molecule | T1/2 [4]
15800 ng·h/mL | 5.1 h | 3.9 h | 5.9 | 7.6 | 6600 ng/g | 3600 ng/g | – | Cc1c(Nc2nccc3cc(CN4CC[C@@H](O)C4)cnc23)cccc1-c1cccc(-c2nc3cc(CN4CC[C@@H](C(=O)O)C4)cc(C#N)c3o2)c1C [Compound 14 (INCB086550)] | –
– | – | – | – | – | – | – | 18.9 nM | [2H]c1c([2H])c(NC(=O)c2nc3c(n2C)CCN(CCC24CCC(COC)(CC2)C4)C3)c(F)c(-c2c([2H])c([2H])c([2H])c(NC(=O)c3nc4c(n3C)CCN(CCC35CCC(C(=O)O)(CC3)C5)C4)c2Cl)c1[2H] [Compound I-15, 4-(2-(2-((2-chloro-2′-fluoro-3′-(5-(2-(4-(methoxymethyl)bicyclo[2.2.1]heptane-1-yl)ethyl)-1-methyl-4,5,6,7-tetrahydro-1H-imidazo[4,5-c]pyridine-2-carboxamido)-[1,1′-biphenyl]-3-yl-4,4′,5,5′,6,6′-d6)carbamoyl)-1-methyl-1,4,6,7-tetrahydro-5H-imidazo[4,5-c]pyridin-5-yl)ethyl)bi cyclo[2.2.1]heptane-1-carboxylic acid] | –
67400 ng·h/mL | 5.8 h | 4.2 h | 7.8 | 27.2 | 5000 ng/g | 1000 ng/g | – | Cn1c(C(=O)Nc2cccc(-c3cccc(NC(=O)c4nc5c(n4C)CCN(CCC46CCC(C(=O)O)(CC4)C6)C5)c3Cl)c2Cl)nc2c1CCN(CCC13CCC(C(=O)O)(CC1)C3)C2 [Example 17] | –
33700 ng·h/mL | 5.6 h | 3.8 h | 8.7 | 30.2 | 4500 ng/g | 900 ng/g | – | Cn1c(C(=O)Nc2cccc(-c3cccc(NC(=O)c4nc5c(n4C)CCN(CC46CCC(C(=O)O)(CC4)C6)C5)c3Cl)c2Cl)nc2c1CCN(CCO)C2 [Example 180] | –
– | – | – | – | – | – | – | – | atezolizumab: PD-1/PD-L1 antibody drug | 648 h
– | – | – | – | – | – | – | – | nivolumab: PD-1/PD-L1 antibody drug | 605 h
– | – | – | – | – | – | – | – | pembrolizumab: PD-1/PD-L1 antibody drug | 600 h
